From patent publication US9840478B2 (MERCK SHARP & DOHME CORP., priority 2013, dated 2017)

Test system: HIV-1 (H9IIIB strain)
Assay: Cell-based HIV infection assay using a reporter (Cell-Based), MT4-GFP cells
Settings: Human immunodeficiency virus 1, MT4-GFP cells infected with HIV-1 H9IIIB; 50% normal human serum; mean of at least two independent experiments; read-out: Cell-based IP
In short: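 MT4-GFP cells (HIV LTR-driven GFP) infected 24 h with HIV-1 H9IIIB at low MOI, then washed and plated with compounds in RPMI + 50% normal human serum, 0.4% DMSO final. Green cells counted at 24 and 48 h; R0 = 48 h/24 h ratio, inhibition normalized to DMSO and triple-drug control; IC50 from 4-parameter fit.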

COC(=O)N[C@H](C(=O)Nc1cccc(F)c1CC[C@H]1CNCCN1S(=O)(=O)c1ccccc1)[C@@H](c1ccc(Cl)cc1)C1CC(C)(C)OC(C)(C)C1 [Example 77, (βR)-4-chloro-N-(3-fluoro-2-{2-[(2S)-1-(phenylsulfonyl)piperazin-2-yl]ethyl}phenyl)-Nα-(methoxycarbonyl)-β-(2,2,6,6-tetramethyltetrahydro-2H-pyran-4-yl)-L-phenylalaninamide]
IC50: 18 nM

N[C@H](C(=O)Nc1cccc(F)c1CC[C@@H]1CNCCN1S(=O)(=O)c1ccccc1)[C@@H](c1ccc(Cl)c(F)c1)C1CCOCC1 [Example 38, (βR)-4-chloro-3-fluoro-N-(3-fluoro-2-{2-[(2R)-1-(phenylsulfonyl)piperazin-2-yl]ethyl}phenyl)-β-(tetrahydro-2H-pyran-4-yl)-L-phenylalaninamide]
IC50: 890 nM

COC(=O)N[C@H](C(=O)Nc1cccc(F)c1CC[C@H]1CNC[C@H](C)N1S(=O)(=O)c1ccc(OC)cc1)[C@H](c1cccc(F)c1)c1cccc(Cl)c1 [Example 163, (βR)-3-chloro-N-[3-fluoro-2-(2-{(2S,6S)-1-[(4-methoxyphenyl)sulfonyl]-6-methylpiperazin-2-yl}ethyl)phenyl]-β-(3-fluorophenyl)-Nα-(methoxycarbonyl)-L-phenylalaninamide]
IC50: 20 nM

COC(=O)N[C@H](C(=O)Nc1cccc(F)c1CC[C@H]1CNCCN1S(=O)(=O)c1ccccc1)C(c1cc(F)cc(F)c1)c1cc(F)cc(F)c1 [Example 51, β-(3,5-difluorophenyl)-3,5-difluoro-N-(3-fluoro-2-{2-[(2S)-1-(phenylsulfonyl)piperazin-2yl]ethyl}phenyl)-Nα-(methoxycarbonyl)-L-phenylalaninamide]
IC50: 11 nM

COc1ccc([C@H](c2ccc(Cl)cc2)[C@H](N)C(=O)Nc2cccc(F)c2CC[C@H]2CNC[C@H](C)N2S(=O)(=O)C2CC2)cn1 [Example 150, (βS)-4-chloro-N-(2-{2-[(2S,6S)-1-(cyclopropylsulfonyl)-6-methylpiperazin-2-yl]ethyl}-3-fluorophenyl)-β-(6-methoxypyridin-3-yl)-L-phenylalaninamide]
IC50: 26 nM

C[C@H]1CNC[C@H](CCc2c(F)cccc2NC(=O)CC(c2ccc(F)cc2)c2ccc(F)cc2)N1S(=O)(=O)c1ccccc1 [Example 92, N-(3-fluoro-2-{2-[(2S,6S)-6-methyl-1-(phenylsulfonyl)piperazin-2-yl]ethyl}phenyl)-3,3-bis(4-fluorophenyl) propanamide]
IC50: 17 nM

COC(=O)NC(C(=O)Nc1cccc(F)c1CC[C@H]1CNC[C@@H](C)N1S(=O)(=O)c1ccc(C(F)F)cc1)[C@@H](c1ccc(Cl)cc1)C1CCOCC1 (stereo partly drawn) [Example 266]
IC50: 26 nM

COc1ccccc1S(=O)(=O)N1[C@@H](CCc2c(F)cccc2NC(=O)[C@@H](N)[C@@H](c2ccc(F)cc2)c2cc(F)cc(F)c2)CNC[C@H]1C [Example 239, (βS)-β-(3,5-difluorophenyl)-4-fluoro-N-[3-fluoro-2-(2-{(2S,6R)-1-[(2-methoxyphenyl)sulfonyl]-6-methylpiperazin-2-yl}ethyl)phenyl]-L-phenylalaninamide]
IC50: 130 nM

N[C@H](C(=O)Nc1cncc(F)c1CC[C@H]1CNCCN1S(=O)(=O)c1ccccc1)C(c1cccc(F)c1)c1cccc(F)c1 [Example 4, (S)-2-Amino-N-(5-fluoro-4-(2-((S)-1-(phenylsulfonyl)piperazin-2-yl)ethyl)pyridine-3-yl)-3,3-bis(3-fluorophenyl)propanamide]
IC50: 4.3 nM

COC(=O)N[C@H](C(=O)Nc1cncc(F)c1CC[C@H]1CNC[C@@H](C)N1S(=O)(=O)C1CC1)[C@@H](c1ccc(Cl)cc1)C(C)C [Example 180, (βR)-4-chloro-N-(4-{2-[(2S,6R)-1-(cyclopropylsulfonyl)-6-methylpiperazin-2-yl]ethyl}-5-fluoropyridin-3-yl)-Nα-(methoxycarbonyl)-β-(1-methylethyl)-L-phenylalaninamide]
IC50: 69 nM

C[C@@H]1CN(S(=O)(=O)c2ccccc2)[C@@H](CCc2c(F)cccc2NC(=O)[C@@H](N)[C@@H](c2ccc(Cl)cc2)c2cccc(OC(F)(F)F)c2)CN1 [Example 98, (βS)-4-chloro-N-(3-fluoro-2-{2-[(2S,5R)-5-methyl-1-(phenylsulfonyl)piperazin-2-yl]ethyl}phenyl)-β-[3-(trifluoromethoxy)phenyl]-L-phenylalaninamide]
IC50: 350 nM

COc1ccc(S(=O)(=O)N2[C@@H](CCc3c(F)cncc3NC(=O)[C@@H](N)[C@@H](c3ccc(F)cc3)c3cc(F)cc(F)c3)CNC[C@@H]2C)cc1 [Example 244, (βS)-β-(3,5-difluorophenyl)-4-fluoro-N-[5-fluoro-4-(2-{(2S,6S)-1-[(4-methoxyphenyl)sulfonyl]-6-methylpiperazin-2-yl}ethyl)pyridin-3-yl]-L-phenylalaninamide]
IC50: 5.9 nM

C[C@@H]1CNC[C@@H](CCc2c(F)cccc2NC(=O)CC(c2ccc(F)cc2)c2ccc(F)cc2)N1S(=O)(=O)c1ccccc1 [Example 91, N-(3-fluoro-2-{2-[(2R,6R)-6-methyl-1-(phenylsulfonyl)piperazin-2-yl]ethyl}phenyl)-3,3-bis(4-fluorophenyl) propanamide]
IC50: 1700 nM

COc1ccc([C@H](c2ccc(Cl)cc2)[C@H](N)C(=O)Nc2cccc(F)c2CC[C@H]2CNC[C@H](C)N2S(C)(=O)=O)cn1 [Example 164, (βS)-4-chloro-N-(3-fluoro-2-{2-[(2S,6S)-6-methyl-1-(methylsulfonyl)piperazin-2-yl]ethyl}phenyl)-β-(6-methoxypyridin-3-yl)-L-phenylalaninamide]
IC50: 37 nM

CC(=O)N[C@H](C(=O)Nc1cncc(F)c1CC[C@H]1CNCCN1S(=O)(=O)N1CCCC1)[C@@H](c1ccc(F)cc1)c1cc(F)cc(F)c1 [Example 85, (βS)-Nα-acetyl-3,5-difluoro-β-(4-fluorophenyl)-N-(5-fluoro-4-{2-[(2S)-1-(pyrrolidin-1-ylsulfonyl)piperazin-2-yl]ethyl}pyridin-3-yl)-L-phenylalaninamide]
IC50: 21 nM

COC(=O)N[C@H](C(=O)Nc1cncc(F)c1CC[C@H]1CNC[C@@H](C)N1S(=O)(=O)c1ccccc1)[C@@H](c1ccc(Cl)cc1)C1CCOCC1 [Example 279, (βR)-4-chloro-N-(5-fluoro-4-{2-[(2S,6R)-6-methyl-1-(phenylsulfonyl)piperazin-2-yl]ethyl}pyridin-3-yl)-Nα-(methoxycarbonyl)-β-(tetrahydro-2H-pyran-4-yl)-L-phenylalaninamide]
IC50: 16 nM

C[C@H]1CNC[C@H](CCc2c(F)cncc2NC(=O)[C@@H](N)[C@@H](c2ccc(Cl)cc2)C2CCOCC2)N1S(=O)(=O)c1ccccc1 [Example 277, (βR)-4-chloro-N-(5-fluoro-4-{2-[(2S,6S)-6-methyl-1-(phenylsulfonyl)piperazin-2-yl]ethyl}pyridin-3-yl)-β-(tetrahydro-2H-pyran-4-yl)-L-phenylalaninamide]
IC50: 15 nM

COC(=O)N[C@H](C(=O)Nc1cccc(F)c1CC[C@H]1CNC[C@H](C)N1S(C)(=O)=O)[C@@H](c1ccc(F)cc1)c1cc(F)cc(F)c1 [Example 99, (βS)-β-(3,5-difluorophenyl)-4-fluoro-N-(3-fluoro-2-{2-[(2S,6S)-6-methyl-1-(methylsulfonyl)piperazin-2-yl]ethyl}phenyl)-Nα-(methoxycarbonyl)-L-phenylalaninamide]
IC50: 16 nM

COC(=O)N[C@H](C(=O)Nc1cccc(F)c1CC[C@H]1CNC[C@H](C)N1S(=O)(=O)c1ccccc1Cl)[C@@H](c1ccc(Cl)cc1)C(C)C [Example 143, (βR)-4-chloro-N-[2-(2-{(2S,6S)-1-[(2-chlorophenyl)sulfonyl]-6-methylpiperazin-2-yl}ethyl)-3-fluorophenyl]-Nα-(methoxycarbonyl)-β-(1-methylethyl)-L-phenylalaninamide]
IC50: 570 nM

C[C@H]1CNC[C@H](CCc2c(F)cccc2NC(=O)[C@@H](N)[C@@H](c2ccc(Cl)cc2)c2cccc(F)c2)N1S(=O)(=O)C1CC1 [Example 167, (βS)-4-chloro-N-(2-{2-[(2S,6S)-1-(cyclopropylsulfonyl)-6-methylpiperazin-2-yl]ethyl}-3-fluorophenyl)-β-(3-fluorophenyl)-L-phenylalaninamide]
IC50: 31 nM

C[C@H]1CNC[C@H](CCc2c(F)cncc2NC(=O)[C@@H](N)[C@@H](c2ccc(Cl)cc2)c2cccc(F)c2)N1S(=O)(=O)c1ccccc1 [Example 113, (βS)-β-(4-chlorophenyl)-3-fluoro-N-(5-fluoro-4-{2-[(2S,6S)-6-methyl-1-(phenylsulfonyl)piperazin-2-yl]ethyl}pyridin-3-yl)-L-phenylalaninamide]
IC50: 25 nM

Nc1ccc(S(=O)(=O)N2CCNC[C@@H]2CCc2c(F)cncc2NC(=O)[C@@H](N)[C@@H](c2ccc(F)cc2)c2cc(F)cc(F)c2)cn1 [Example 29, (βS)-N-[4-(2-{(2S)-1[(6-aminopyridin-3-yl)sulfonyl]piperazin-2-yl}ethyl)-5-fluoropyridin-3-yl]-3,5-difluoro-β-(4-fluorophenyl)-L-phenylalaninamide]
IC50: 520 nM

O=C(C[C@@H](c1ccc(F)cc1)c1cc(F)cc(F)c1)Nc1cncc(F)c1CC[C@H]1CNCCN1S(=O)(=O)c1ccc(-c2ccccn2)s1 [Example 311, (3S)-3-(3,5-difluorophenyl)-3-(4-fluorophenyl)-N-[5-fluoro-4-(2-{(2S)-1-[(5-pyridin-2-ylthiophen-2-yl)sulfonyl]piperazin-2-yl}ethyl)pyridin-3-yl]propanamide]
IC50: 20 nM

CS(=O)(=O)N1CCNC[C@@H]1CCc1c(F)cccc1NC(=O)[C@@H](N)[C@@H](c1ccc(Cl)cc1)C1CCOCC1 [Example 65, (βR)-4-chloro-N-(3-fluoro-2-{2-[(2S)-1-(methylsulfonyl)piperazin-2-yl]ethyl}phenyl)-β-(tetrahydro-2H-pyran-4-yl)-L-phenylalaninamide]
IC50: 120 nM
